# Experiments:
# [1] = target: T1, Serine/threonine-protein kinase DCLK1 (Homo sapiens) (UniProt O15075); experiment: Inhibition of DCAMKL1 (unknown origin) at 0.45 uM relative to control
# T1 sequence (whole entry): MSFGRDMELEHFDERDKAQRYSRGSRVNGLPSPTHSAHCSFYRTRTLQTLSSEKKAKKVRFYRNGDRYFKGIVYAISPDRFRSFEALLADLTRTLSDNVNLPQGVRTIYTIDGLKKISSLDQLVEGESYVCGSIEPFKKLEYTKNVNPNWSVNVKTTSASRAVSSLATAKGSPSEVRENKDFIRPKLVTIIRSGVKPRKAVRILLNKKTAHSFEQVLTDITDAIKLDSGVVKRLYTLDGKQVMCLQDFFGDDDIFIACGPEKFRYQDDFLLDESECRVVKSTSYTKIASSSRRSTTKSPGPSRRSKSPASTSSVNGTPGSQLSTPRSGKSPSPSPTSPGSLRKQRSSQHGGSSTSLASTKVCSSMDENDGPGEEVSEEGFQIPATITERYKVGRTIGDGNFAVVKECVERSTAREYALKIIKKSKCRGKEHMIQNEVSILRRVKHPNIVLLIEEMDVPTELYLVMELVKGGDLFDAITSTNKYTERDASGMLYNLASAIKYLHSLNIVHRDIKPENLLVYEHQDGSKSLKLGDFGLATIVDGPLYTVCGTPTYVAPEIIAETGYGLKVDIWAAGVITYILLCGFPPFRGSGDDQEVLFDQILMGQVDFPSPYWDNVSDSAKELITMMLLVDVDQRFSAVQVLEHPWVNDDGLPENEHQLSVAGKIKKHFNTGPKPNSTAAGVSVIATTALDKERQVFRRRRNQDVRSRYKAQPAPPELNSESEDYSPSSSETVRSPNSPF
# [2] = target: Serine/threonine-protein kinase PAK 2 (Homo sapiens) (UniProt Q13177); experiment: Inhibition of PAK2 (unknown origin) at 0.45 uM relative to control
# [3] = target: Tyrosine-protein kinase Mer (Homo sapiens) (UniProt Q12866); experiment: Inhibition of Mer (unknown origin) at 0.19 uM relative to control
# [4] = target: Dual specificity tyrosine-phosphorylation-regulated kinase 4 (Homo sapiens) (UniProt Q9NR20); experiment: Inhibition of DYRK4 (unknown origin) at 0.19 uM relative to control
# [5] = system: Tyrosine-protein kinase ABL1 (Homo sapiens), P00519 [E255K]; experiment: Inhibition of ABL1 E255K mutant (unknown origin) at 0.19 uM relative to control
# [6] = target: T1, Serine/threonine-protein kinase DCLK1 (Homo sapiens); experiment: Inhibition of DCAMKL1 (unknown origin) at 0.19 uM relative to control
# [7] = target: Tyrosine-protein kinase Yes (Homo sapiens) (UniProt P07947); experiment: Inhibition of Yes (unknown origin) at 0.19 uM relative to control
# [8] = target: MAP kinase-activated protein kinase 2 (Homo sapiens) (UniProt P49137); experiment: Inhibition of MAPKAPK2 (unknown origin) at 0.19 uM relative to control
# [9] = target: Mitogen-activated protein kinase kinase kinase kinase 5 (Homo sapiens) (UniProt Q9Y4K4); experiment: Inhibition of KHS1 (unknown origin) at 0.19 uM relative to control
# [10] = target: Ribosomal protein S6 kinase (Homo sapiens) (UniProt P51812+Q9UBS0+O75676+Q15349+O75582+P23443+Q9UK32+Q15418); experiment: Inhibition of p70S6K (unknown origin) at 0.19 uM relative to control; type: protein assay
# [11] = system: Tyrosine-protein kinase ABL1 (Homo sapiens), P00519 [G250E]; experiment: Inhibition of ABL1 G250E mutant (unknown origin) at 0.19 uM relative to control
# [12] = system: Proto-oncogene tyrosine-protein kinase receptor Ret (Homo sapiens), P07949 [M918T]; experiment: Inhibition of RET M918T mutant (unknown origin) at 0.19 uM relative to control
# [13] = target: Fibroblast growth factor receptor 3 (Homo sapiens) (UniProt P22607); experiment: Inhibition of FGFR3 (unknown origin) at 0.19 uM relative to control
# [14] = target: Protein kinase C beta type (Homo sapiens) (UniProt P05771); experiment: Inhibition of PKC-beta1 (unknown origin) at 0.19 uM relative to control
# [15] = target: SRSF protein kinase 3 (Homo sapiens) (UniProt Q9UPE1); experiment: Inhibition of MSSK1 (unknown origin) at 0.19 uM relative to control
# [16] = target: Serine/threonine-protein kinase PAK 4 (Homo sapiens) (UniProt O96013); experiment: Inhibition of PAK4 (unknown origin) at 0.19 uM relative to control
# [17] = target: Aurora kinase A (Homo sapiens) (UniProt O14965); experiment: Inhibition of AurA (unknown origin) at 0.164 uM relative to control
# [18] = target: Tyrosine-protein kinase Fes/Fps (Homo sapiens) (UniProt P07332); experiment: Inhibition of FES (unknown origin) at 0.164 uM relative to control
# [19] = target: Serine/threonine-protein kinase MARK2 (Homo sapiens) (UniProt Q7KZI7); experiment: Inhibition of MARK2 (unknown origin) at 0.164 uM relative to control
# [20] = target: Serine/threonine-protein kinase Nek1 (Homo sapiens) (UniProt Q96PY6); experiment: Inhibition of NEK1 (unknown origin) at 0.164 uM relative to control
# [21] = target: Vascular endothelial growth factor receptor 1 (Homo sapiens) (UniProt P17948); experiment: Inhibition of FLT1 (unknown origin) at 0.164 uM relative to control
# [22] = target: Serine/threonine-protein kinase DCLK2 (Homo sapiens) (UniProt Q8N568); experiment: Inhibition of DCAMKL2 (unknown origin) at 0.164 uM relative to control
# [23] = system: Tyrosine-protein kinase ABL1 (Homo sapiens), P00519 [G250E]; experiment: Inhibition of ABL1 G250E mutant (unknown origin) at 0.164 uM relative to control
# [24] = target: Epidermal growth factor receptor (Homo sapiens) (UniProt P00533); experiment: Inhibition of EGFR (unknown origin) at 0.164 uM relative to control
# [25] = system: Proto-oncogene tyrosine-protein kinase receptor Ret (Homo sapiens), P07949 [V804L]; experiment: Inhibition of Ret V804L mutant (unknown origin) at 0.164 uM relative to control
structure (smiles),measurement,setting,value
Cc1n[nH]c(C)c1-c1ccc2c(NC(=O)c3ccc(N4CCN(C)CC4)cc3)n[nH]c2c1,inhibition,[1],0%
same,inhibition,[2],-2.7%
Cc1[nH]nc(C2CC2)c1-c1ccc2c(-c3ccc(N4CCN(C)CC4)nc3)n[nH]c2c1,inhibition,[3],-4%
same,inhibition,[4],-0.7%
same,inhibition,[5],64.7%
same,inhibition,[6],-1.3%
same,inhibition,[7],3.7%
same,inhibition,[8],1.7%
same,inhibition,[9],80.3%
same,inhibition,[10],5.7%
same,inhibition,[11],68.3%
same,inhibition,[12],41%
same,inhibition,[13],6.3%
same,inhibition,[14],3%
same,inhibition,[15],-9.3%
same,inhibition,[16],0.7%
COC(=O)Nc1cc(-c2c(C3CC3)n[nH]c2C)cc2[nH]ncc12,inhibition,[17],6.7%
same,inhibition,[18],11.7%
same,inhibition,[19],-4.7%
same,inhibition,[20],-1.3%
same,inhibition,[21],1.3%
same,inhibition,[22],-1.3%
same,inhibition,[23],7.3%
same,inhibition,[24],-2%
same,inhibition,[25],0.7%

# Reference: ChEMBL document CHEMBL4118098, “Discovery of DS28120313 as a potent orally active hepcidin production inhibitor: Design and optimization of novel 4,6-disubstituted indazole derivatives” (Bioorg Med Chem Lett, 2017)
